Reference: patent US20200061047A1, “NEW USE OF RIFAMYCIN-QUINOLIZIDONE DUAL-ACTION MOLECULE” (TenNor Therapeutics Limited, priority 2017, published 2020)
Converted amounts (≈) assume the structure as drawn. Read-outs that look alike come from different tables or passages of the source.

Key:
Format in all cases: cell-based
[1] = tested on: Bacteroides bifidum ATCC 1569; experiment: MIC, agar dilution drug sensitivity test; conditions: ATCC1569, Table 1
[2] = tested on: Eggerthella lenta ATCC 43055; experiment: MIC, agar dilution drug sensitivity test; conditions: ATCC43055, Table 1
[3] = tested on: Fusobacterium necrophorum ATCC 25286; experiment: MIC, agar dilution drug sensitivity test; conditions: ATCC25286, Table 1
[4] = tested on: Peptostreptococcus prevotii ATCC 9321; experiment: MIC, agar dilution drug sensitivity test; conditions: Anaerococcus prevotii, ATCC9321, Table 1
[5] = tested on: Klebsiella oxytoca JMI 933995; experiment: MIC, agar dilution drug sensitivity test; conditions: JMI933995, Table 1
[6] = tested on: Morganella morganii MMX 6123; experiment: MIC, agar dilution drug sensitivity test; conditions: MMX6123, Table 1
[7] = tested on: Proteus mirabilis JMI 933599; experiment: MIC, agar dilution drug sensitivity test; conditions: JMI933599, Table 1
[8] = tested on: Yersinia enterocolitica ATCC 23715; experiment: MIC, agar dilution drug sensitivity test; conditions: ATCC23715, Table 1
[9] = tested on: Actinomyces naeslundii JMI 534283; experiment: MIC, agar dilution drug sensitivity test; conditions: JMI534283, Aerobic
[10] = tested on: Alcaligenes faecalis JMI 940880; experiment: MIC, agar dilution drug sensitivity test; conditions: JMI940880, Aerobic
[11] = tested on: Bordetella avium ATCC 6945; experiment: MIC, agar dilution drug sensitivity test; conditions: Bordetella avium, ATCC6945, Bordetella avium ATCC 6945, read-out: MIC
[12] = tested on: Serratia marcescens ATCC 43862; experiment: MIC, agar dilution drug sensitivity test; conditions: Serratia marcescens, ATCC43862, Serratia marcescens ATCC 43862, read-out: MIC
[13] = tested on: Proteus vulgaris ATCC 1331; experiment: MIC, agar dilution drug sensitivity test; conditions: Proteus vulgaris, ATCC1331, Proteus vulgaris ATCC 1331, read-out: MIC
[14] = tested on: Haemophilus influenzae ATCC 49247; experiment: MIC, microscale broth dilution drug sensitivity test
Method: (§1) In this embodiment, compound I-rifamycin-quinolizidone dual-action molecule is used in a drug sensitivity test on pathogenic bacteria associated with hepatic encephalopathy, the pathogenic bacteria including the above ammonia-producing bacteria. Except that Haemophilus is tested using the microscale broth dilution method, all the other bacteria are tested using the agar dilution method consistent with that in the Guideline of the Clinical and Laboratory Standards Institute (CLSI; 1-3). All the other drug susceptibility tests are performed under anaerobic conditions except that some selective isolates are tested under both aerobic and anaerobic conditions. Control compounds include metronidazole, rifampicin, clindamycin (under anaerobic conditions) and ciprofloxacin (under aerobic and anaerobic conditions). The tested clinical isolates may be reference strains obtained from American Type Culture Collection, ATCC, Manassas, Va. After being received, the strains are respectively inoculated on appropriate agar plates and placed under optimized conditions for growth. The growing strains are cloned in the broth containing cryoprotectant to prepare bacterial suspensions, and the bacterial suspensions are subpackaged and then stored in freezing at −80° C. Before test, the frozen bacteria are inoculated into appropriate agar dishes and cultured for growth. Anaerobic bacteria grow for 48 hours at 35° C. in a Bactron II oxygen-free cabinet (Shel Lab, Cornelius, Oreg.) before test. Haemophilus Test Medium (HTM, Teknova, Hollister, Calif.; Art. No.: 895120) is used to perform drug sensitivity test on Hemophilus using the microscale broth dilution method under aerobic and anaerobic conditions. Preparation and storage of all the above broths are performed in accordance with CLSI (1-3).

[15] = tested on: Haemophilus parainfluenzae ATCC 49247; experiment: as above; conditions: ATCC49247; Haemophilus parainfluenzae ATCC 49247; Aerobic; read-out: MIC
Method: as §1

[16] = tested on: Streptococcus parasanguinis MMX 5671; experiment: MIC, agar dilution drug sensitivity test; conditions: Streptococcus parasanguinis, MMX5671, Streptococcus parasanguinis MMX 5671, read-out: MIC
[17] = tested on: Streptococcus salivarius ATCC 25975; experiment: MIC, agar dilution drug sensitivity test; conditions: Streptococcus salivarius, ATCC25975, Streptococcus salivarius ATCC 25975, read-out: MIC
[18] = tested on: Streptococcus pneumoniae ATCC 49619; experiment: MIC, agar dilution drug sensitivity test; conditions: read-out: MIC
[19] = ATCC49247, Haemophilus influenzae ATCC 49247, Aerobic
[20] = ATCC49247, Haemophilus influenzae ATCC 49247, Anaerobic
[21] = ATCC49619, Streptococcus pneumoniae ATCC 49619, Aerobic
[22] = ATCC49619, Streptococcus pneumoniae ATCC 49619, Anaerobic

Compound	MIC [1]	MIC [2]	MIC [3]	MIC [4]	MIC [5]	MIC [6]	MIC [7]	MIC [8]	MIC [9]	MIC [10]	MIC ([11]; Aerobic)	MIC ([11]; Anaerobic)	MIC ([12]; Aerobic)	MIC ([12]; Anaerobic)	MIC ([13]; Aerobic)	MIC ([13]; Anaerobic)	MIC [14, 19]	MIC [14, 20]	MIC [15]	MIC ([16]; Aerobic)	further results
O=C(O)c1cn(C2CC2)c2cc(N3CCNCC3)c(F)cc2c1=O [Ciprofloxacin, ciprofloxacin]	2 mg/L (≈ 6.04 µM)	1 mg/L (≈ 3.02 µM)	1 mg/L (≈ 3.02 µM)	1 mg/L (≈ 3.02 µM)	0.015 mg/L (≈ 0.0453 µM)	1 mg/L (≈ 3.02 µM)	0.0015 mg/L (≈ 0.00453 µM)	0.015 mg/L (≈ 0.0453 µM)	2 mg/L (≈ 6.04 µM)	1 mg/L (≈ 3.02 µM)	1 mg/L (≈ 3.02 µM)	2 mg/L (≈ 6.04 µM)	0.12 mg/L (≈ 0.362 µM)	0.25 mg/L (≈ 0.754 µM)	0.03 mg/L (≈ 0.0905 µM)	0.03 mg/L (≈ 0.0905 µM)	≤ 0.12 mg/L	≤ 0.12 mg/L	≤ 0.12 mg/L	1 mg/L (≈ 3.02 µM)	MIC ([16]; Anaerobic): 1 mg/L (≈ 3.02 µM); MIC ([17]; Aerobic): 1 mg/L (≈ 3.02 µM); MIC ([17]; Anaerobic): 2 mg/L (≈ 6.04 µM); MIC [18, 21]: 1 mg/L (≈ 3.02 µM); MIC [18, 22]: 2 mg/L (≈ 6.04 µM)
CO[C@H]1/C=C/O[C@@]2(C)Oc3c(C)c(O)c4c(O)c(c(/C=N/N5CCC(N(C)C6([C@@H]7CCN(c8c(F)cn9c(=O)c(C(=O)O)cc(C%10CC%10)c9c8C)C7)CC6)CC5)c(O)c4c3C2=O)NC(=O)/C(C)=C\C=C\[C@H](C)[C@H](O)[C@@H](C)[C@@H](O)[C@@H](C)[C@H](OC(C)=O)[C@@H]1C [Compound I, (R)-3-[(4-{1-[1-(3-carboxy-1-cyclopropyl-7-fluoro-9-methyl-4-oxo-4H-quinolizine-8-yl)-pyrrolidin-3-yl-cyclopropyl]-methylamino}-piperidin-1-ylimino)-methylene]-rifamycin SV]	16 mg/L (≈ 13.3 µM)	0.06 mg/L (≈ 0.0498 µM)	0.12 mg/L (≈ 0.0996 µM)	0.03 mg/L (≈ 0.0249 µM)	4 mg/L (≈ 3.32 µM)	16 mg/L (≈ 13.3 µM)	8 mg/L (≈ 6.64 µM)	0.12 mg/L (≈ 0.0996 µM)	0.03 mg/L (≈ 0.0249 µM)	32 mg/L (≈ 26.5 µM)	4 mg/L (≈ 3.32 µM)	> 64 mg/L	4 mg/L (≈ 3.32 µM)	> 64 mg/L	0.5 mg/L (≈ 0.415 µM)	> 64 mg/L	0.12 mg/L (≈ 0.0996 µM)	0.12 mg/L (≈ 0.0996 µM)	0.25 mg/L (≈ 0.207 µM)	0.25 mg/L (≈ 0.207 µM)	MIC ([16]; Anaerobic): 8 mg/L (≈ 6.64 µM); MIC ([17]; Aerobic): 0.5 mg/L (≈ 0.415 µM); MIC ([17]; Anaerobic): > 64 mg/L; MIC [18, 21]: 0.06 mg/L (≈ 0.0498 µM); MIC [18, 22]: 0.06 mg/L (≈ 0.0498 µM)
